Patent US5428059A, “Benzopyran derivatives and an anti-allergic agent possessing the same as the active ingredient” (Dainippon Ink & Chemicals, Inc., priority 1991, dated 1995)

test system: Hartley-type male guinea pigs; test: Guinea Pig Homogeneous Skin Passive Anaphylaxis Assay (PCA reaction); format: in vivo, guinea pig (Hartley-type); conditions: 10 mg/kg oral, 48 h after sensitization
Experimental: In order to confirm the anti-allergic action of the compounds according to the present invention, as an anti-allergic action confirmation assay, the widely used Guinea Pig Homogeneous Skin Passive Anaphylaxis Assay (PCA Reaction Assay; Passive Cutaneous Anaphylaxis Reaction Assay) was carried out. The assay method used will be explained in the following.
Assay method: Hartley-type male guinea pigs (body weight: 250~300 g) were sensitized by the following procedure; a mixture of 2 μg of egg albumin (OVA) and 5 μg of aluminium hydroxide gel was administered intraperitoneally 3 times every 2 weeks, and the anti-OVA blood serum was manufactured.
The anti-blood serum obtained was then diluted 120 times using physiological saline solution, and then to groups each containing 6 shaved guinea pigs, was injected at a quantity of 0.05 ml respectively, into two positions in the back portion, inside the skin of each animal.
After the 48th hour of sensitization, 10 mg/kg of the test substance to be tested was orally administered, following which a mixture of 2 mg OVA and 5 mg of Evans Blue was administered by intraveneous injection into the hind leg, triggering the anaphylaxis reaction. As the positive control, Tranilast, a well known anti-allergic agent, was used, and in the same manner as the substances to be tested, 100 mg/kg of it was orally administered after the 48th hour of sensitization.
30 minutes after triggering the reaction, the animals were bled to death under ether anesthesia, and their back portion skins were peeled off. The long and short diameters of pigment leakage spots on the interior surface of the skins were measured, and the product of these (mm^2) were entered into formula 1 as "pigment leakage amount", from which the allergic reaction inhibitory index wins calculated. [formula]
I: Allergic reaction inhibitory index (%)
A: Pigment leakage amount of solvent control group
B: Pigment leakage amount of test substance group
C: Pigment leakage amount of […]

With `CCCCOc1c(O)c2c(OC)cccc2oc1=O` [Compound 225, 3-(butoxy)-4-hydroxy-5-(methoxy)-2H-1-benzopyran-2-one] the “Allergic reaction inhibitory index (%)” value was 35%.

same assay, conditions: Cavia porcellus, 10 mg/kg oral, 48 h after sensitization, read-out: Allergic reaction inhibitory index (%)

Compared with `CCCCOc1cccc2oc(=O)c(O)c(O)c12` [Compound 227, 3,4-(dihydroxy)-5-(butoxy)-2H-1-benzopyran-2-one], `CCCCCCCCCCOc1ccc2c(O)c(O)c(=O)oc2c1` [Compound 59, 3,4-(dihydroxy)-7-(decyloxy)-2H-1-benzopyran-2-one] is lower in inhibition in vivo at 10 mg/kg: 50% for the first, 47% for the second.

Compared with `COc1c(OC/C=C(\C)CCC=C(C)C)c2ccc(OC(C)C)cc2oc1=O` [Compound 56, 3-(methoxy)-4-(geranyloxy)-7-(isopropoxy)-2H-1-benzopyran-2-one], `CC(C)=CCC/C(C)=C/COc1c(O)c2ccc(OC(C)C)cc2oc1=O` [Compound 53, 3-(geranyloxy)-4-hydroxy-7-(isopropoxy)-2H-1-benzopyran-2-one] is higher in inhibition in vivo at 10 mg/kg: 31% for the first, 38% for the second.

`CC(C)=CCC/C(C)=C/COc1c(OC(C)C)c(=O)oc2c(OC/C=C(\C)CCC=C(C)C)cccc12` [Compound 172, 3-(isopropoxy)-4,8-(digeranyloxy)-2H-1-benzopyran-2-one] and `CC(C)=CCC/C(C)=C/COc1c(OC/C=C(\C)CCC=C(C)C)c2ccc(OC(C)C)cc2oc1=O` [Compound 57, 3,4-(digeranyloxy)-7-(isopropoxy)-2H-1-benzopyran-2-one] are the same in inhibition in vivo at 10 mg/kg: 30% for the first, 30% for the second.

Going from `COc1cccc2c(OC(C)C)c(O)c(=O)oc12` [Compound 116, 3-hydroxy-4-(isopropoxy)-8-(methoxy).2H-1-benzopyran-2-one] to `COc1cccc2oc(=O)c(OC(C)C)c(O)c12` [Compound 198, 3-(isopropoxy)-4-hydroxy-5-(methoxy)-2H-1-benzopyran-2-one], the inhibition in vivo at 10 mg/kg rises from 34% to 40%.

Going from `COc1cccc2c(OC(=O)c3ccccc3)c(OC/C=C(\C)CCC=C(C)C)c(=O)oc12` [Compound 122, 3-(geranyloxy)-4-(benzoyloxy)-8-(methoxy)-2H-1-benzopyran-2-one] to `COc1cccc2oc(=O)c(OC/C=C(\C)CCC=C(C)C)c(OC(=O)c3ccccc3)c12` [Compound 205, 3-(geranyloxy)-4-(benzoyloxy)-5-(methoxy)-2H-1-benzopyran-2-one], the inhibition in vivo at 10 mg/kg rises from 30% to 31%.

Compared with `CCCCCCCCCCOc1cccc2c(OC(C)=O)c(OC/C=C(\C)CCC=C(C)C)c(=O)oc12` [Compound 153, 3-(geranyloxy)-4-(acetoxy)-8-(decyloxy)-2H-1-benzopyran-2-one], `CCCCCCCCCCOc1c(OC(C)C)c2cccc(OC/C=C(\C)CCC=C(C)C)c2oc1=O` [Compound 164, 3-(decyloxy)-4-(isopropoxy)-8-(geranyloxy)-2H-1-benzopyran-2-one] is higher in inhibition in vivo at 10 mg/kg: 30% for the first, 33% for the second.

First: CC(C)=CCC/C(C)=C/COc1ccc2c(OC(C)C)c(OC(=O)c3ccccc3)c(=O)oc2c1 [Compound 81, 3-(benzoyloxy)-4-(isopropoxy)-7-(geranyloxy)-2H-1-benzopyran-2-one]
Second: CC(C)=CCC/C(C)=C/COc1cccc2c(OC(C)C)c(OC(=O)c3ccccc3)c(=O)oc12 [Compound 165, 3-(benzoyloxy)-4-(isopropoxy)-8-(geranyloxy)-2H-1-benzopyran-2-one]
The inhibition in vivo at 10 mg/kg of the first is higher: 31% for the first, 30% for the second.

Going from `CCCCCCCCCCOc1cccc2oc(=O)c(OC(=O)c3ccccc3)c(O)c12` [Compound 229, 3-(benzoyloxy)-4-hydroxy-5-(decyloxy)-2H-1-benzopyran-2-one] to `CCCCCCCCCCOc1cccc2oc(=O)c(OC)c(OC(=O)c3ccccc3)c12` [Compound 236, 3-(methoxy)-4-(benzoyloxy)-5-(decyloxy)-2H-1-benzopyran-2-one], the inhibition in vivo at 10 mg/kg falls from 37% to 31%.

Going from `CC(C)=CCC/C(C)=C/COc1c(OC(=O)c2ccccc2)c(=O)oc2c(O)cccc12` [Compound 106, 3-(benzoyloxy)-4-(geranyloxy)-8-hydroxy-2H-1-benzopyran-2-one] to `CC(C)=CCC/C(C)=C/COc1cccc2c(O)c(OC(=O)c3ccccc3)c(=O)oc12` [Compound 158, 3-(benzoyloxy)-4-hydroxy-8-(geranyloxy)-2H-1-benzopyran-2-one], the inhibition in vivo at 10 mg/kg falls from 31% to 30%.

Compared with `COc1ccc2c(O)c(OC/C=C(\C)CCC=C(C)C)c(=O)oc2c1` [Compound 37, 3-(geranyloxy)-4-hydroxy-7-(methoxy)-2H-1-benzopyran-2-one], `COc1cccc2c(O)c(OC/C=C(\C)CCC=C(C)C)c(=O)oc12` [Compound 120, 3-(geranyloxy)-4-hydroxy-8-(methoxy)-2H-1-benzopyran-2-one] is lower in inhibition in vivo at 10 mg/kg: 40% for the first, 33% for the second.

Going from `CCCCCCCCCCOc1c(OC)c(=O)oc2c(OC(C)C)cccc12` [Compound 135, 3-(methoxy)-4-(decyloxy)-8-(isopropoxy)-2H-1-benzoyran-2-one] to `CCCCCCCCCCOc1c(OC(C)=O)c(=O)oc2c(OC(C)C)cccc12` [Compound 136, 3-(acetoxy)-4-(decyloxy)-8-(isopropoxy)-2H-1-benzopyran-2-one], the inhibition in vivo at 10 mg/kg rises from 30% to 33%.

Compared with `CCCCCCCCCCOc1cccc2oc(=O)c(OC(=O)c3ccccc3)c(OC/C=C(\C)CCC=C(C)C)c12` [Compound 240, 3-(benzoyloxy)-4-(geranyloxy)-5-(decyloxy)-2H-1-benzopyran-2-one], `CC(=O)Oc1c(OC(=O)c2ccccc2)c(=O)oc2cccc(OC/C=C(\C)CCC=C(C)C)c12` [Compound 247, 3-(benzoyloxy)-4-(acetoxy)-5-(geranyloxy)-2H-1-benzopyran-2-one] is higher in inhibition in vivo at 10 mg/kg: 30% for the first, 34% for the second.

Compared with `COc1ccc2oc(=O)c(O)c(O)c2c1` [Compound 272, 3,4-(dihydroxy)-6-(methoxy)-2H-1-benzopyran-2-one], `COc1ccc2c(O)c(O)c(=O)oc2c1` [Compound 28, 3,4-dihydroxy-7-(methoxy)-2H-1-benzopyran-2-one] is higher in inhibition in vivo at 10 mg/kg: 30% for the first, 53% for the second.

`CC(=O)Oc1c(O)c(=O)oc2cc(OC/C=C(\C)CCC=C(C)C)ccc12` [Compound 76, 3-hydroxy-4-(acetoxy)-7-(geranyloxy)-2H-1-benzopyran-2-one] and `CC(C)=CCC/C(C)=C/COc1ccc2c(OC(C)C)c(O)c(=O)oc2c1` [Compound 79, 3-hydroxy-4-(isopropoxy)-7-(geranyloxy)-2H-1-benzopyran-2-one] are the same in inhibition in vivo at 10 mg/kg: 32% for the first, 32% for the second.

First: COc1cccc2oc(=O)c(O)c(OC(C)=O)c12 [Compound 196, 3-hydroxy-4-(acetoxy)-5-(methoxy)-2H-1-benzopyran-2-one]
Second: CC(=O)Oc1c(OC(C)C)c2c(O)cccc2oc1=O [Compound 185, 3-(acetoxy)-4-(isopropoxy)-5-hydroxy-2H-1-benzopyran-2-one]
The inhibition in vivo at 10 mg/kg of the first is higher: 33% for the first, 30% for the second.

Going from `CC(=O)Oc1c(O)c(=O)oc2c(O)cccc12` [Compound 94, 3,8-(dihydroxy)-4-(acetoxy)-2H-1-benzopyran-2-one] to `COc1c(O)c2cccc(OC)c2oc1=O` [Compound 115, 3,8-(dimethoxy)-4-hydroxy-2H-1-benzopyran-2-one], the inhibition in vivo at 10 mg/kg falls from 36% to 33%.

First: COc1c(OC(C)=O)c2c(OC/C=C(\C)CCC=C(C)C)cccc2oc1=O [Compound 252, 3-(methoxy)-4-(acetoxy)-5-(geranyloxy)-2H-1-benzopyran-2-one]
Second: CC(=O)Oc1c(OC/C=C(\C)CCC=C(C)C)c(=O)oc2cccc(O)c12 [Compound 189, 3-(geranyloxy)-4-(acetoxy)-5-hydroxy-2H-1-benzopyran-2-one]
The inhibition in vivo at 10 mg/kg of the first is higher: 32% for the first, 30% for the second.

Going from `CC(C)=CCC/C(C)=C/COc1ccc2c(OC/C=C(\C)CCC=C(C)C)c(OC(=O)c3ccccc3)c(=O)oc2c1` [Compound 86, 3-(benzoyloxy)-4,7-(digeranyloxy)-2H-1-benzopyran-2-one] to `CC(C)=CCC/C(C)=C/COc1c(OC(=O)c2ccccc2)c(=O)oc2c(OC/C=C(\C)CCC=C(C)C)cccc12` [Compound 170, 3-(benzoyloxy)-4,8-(digeranyloxy)-2H-1-benzopyran-2-one], the inhibition in vivo at 10 mg/kg rises from 30% to 31%.

Compared with `CC(=O)Oc1c(OC(=O)c2ccccc2)c2ccc(O)cc2oc1=O` [Compound 10, 3-(acetoxy)-4-(benzoyloxy)-7-hydroxy-2H-1-benzopyran-2-one], `CCCCCCCCCCOc1c(OC(=O)c2ccccc2)c2cccc(OC(C)C)c2oc1=O` [Compound 137, 3-(decyloxy)-4-(benzoyloxy)-8-(isopropoxy)-2H-1-benzopyran-2-one] is higher in inhibition in vivo at 10 mg/kg: 30% for the first, 32% for the second.

First: CCCCCCCCCCOc1ccc2c(OC/C=C(\C)CCC=C(C)C)c(O)c(=O)oc2c1 [Compound 68, 3-hydroxy-4-(geranyloxy)-7-(decyloxy)-2H-1-benzopyran-2-one]
Second: CC(C)=CCC/C(C)=C/COc1c(O)c(=O)oc2cc(O)ccc12 [Compound 20, 3,7-(dihydroxy)-4-(geranyloxy)-2H-1-benzopyran-2-one]
The inhibition in vivo at 10 mg/kg of the first is higher: 32% for the first, 30% for the second.
